Results from patent publication US8993574B2, “Pyrrole antifungal agents” (F2G Ltd, priority 2008, dated 2015).
Converted amounts (≈) assume the structure as drawn.

Experiments:
Format in all cases: cell-based
[1] = tested on: Aspergillus fumigatus AF210; assay: MIC, RPMI medium; settings: Aspergillus fumigatus, AF210, MIC banded into grades, read-out: MIC grade, A. fumigatus 210
In short: (§1)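 Minimum inhibitory concentrations were determined in glucose-supplemented (2%) RPMI buffered to pH 7.0 with 0.135 M MOPS. Wells held 1−2×10^4 cfu/mL and compound from 50 to 0.05 mg/L, incubated 24-48 h at 35° C, with >80% growth reduction by OD 485 nm as endpoint.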

Aspergillus flavus [2] = assay: MIC, RPMI medium; settings: Aspergillus flavus, MIC banded into grades, read-out: MIC grade, A. flavus
In short: as §1

Aspergillus terreus AT4 [3] = assay: MIC, RPMI medium; settings: Aspergillus terreus, AT4, MIC banded into grades, read-out: MIC grade, A. terreus
In short: as §1

[4] = tested on: Aspergillus fumigatus AF293; assay: MIC, RPMI medium; settings: Aspergillus fumigatus, AF293, MIC banded into grades, read-out: MIC grade, A. fumigatus
In short: as §1

Aspergillus terreus AT49 [5] = assay: MIC, RPMI medium; settings: Aspergillus terreus, AT49, MIC banded into grades, read-out: MIC grade, A. terreus 49
In short: as §1

Aspergillus niger [6] = assay: MIC, RPMI medium; settings: Aspergillus niger, MIC banded into grades, read-out: MIC grade, A. niger
In short: as §1

[7] = tested on: Aspergillus fumigatus AF210; assay: MIC, YAG medium; settings: Aspergillus fumigatus, 24 h at 35° C, MIC banded into grades, read-out: MIC grade, A. fumigatus 210
In short: (§2)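 Spores from 5-day Sabouraud agar cultures were suspended in YAG medium (1% glucose, 1% ammonium chloride, 0.5% yeast extract) at final inocula of 1−2×10^4 cfu/mL against doubling dilutions of compound (50-0.05 mg/L; 0.5-0.0005 mg/L on repeat). Plates were incubated 24 h at 35° C. MIC was the lowest concentration giving >70% growth inhibition by OD485 versus drug-free control.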

Aspergillus flavus [8] = assay: MIC, YAG medium; settings: Aspergillus flavus, 24 h, 24 h at 35° C, MIC banded into grades, read-out: MIC grade, A. flavus
In short: as §2

Aspergillus terreus AT4 [9] = assay: MIC, YAG medium; settings: Aspergillus terreus, 24 h at 35° C, MIC banded into grades, read-out: MIC grade, A. terreus
In short: as §2

[10] = tested on: Aspergillus fumigatus AF293; assay: MIC, YAG medium; settings: Aspergillus fumigatus, 24 h at 35° C, MIC banded into grades, read-out: MIC grade, A. fumigatus
In short: as §2

Aspergillus terreus AT49 [11] = assay: MIC, YAG medium; settings: Aspergillus terreus, 24 h at 35° C, MIC banded into grades, read-out: MIC grade, A. terreus 49
In short: as §2

Aspergillus niger [12] = assay: MIC, YAG medium; settings: Aspergillus niger, 24 h at 35° C, MIC banded into grades, read-out: MIC grade, A. niger
In short: as §2

Row | Compound | MIC [1] [µg/mL] | MIC (Aspergillus flavus [2]) [µg/mL] | MIC (Aspergillus terreus AT4 [3]) [µg/mL] | MIC [4] [µg/mL] | MIC (Aspergillus terreus AT49 [5]) [µg/mL] | MIC (Aspergillus niger [6]) [µg/mL] | MIC [7] [µg/mL] | MIC (Aspergillus flavus [8]) [µg/mL] | MIC (Aspergillus terreus AT4 [9]) [µg/mL] | MIC [10] [µg/mL] | MIC (Aspergillus terreus AT49 [11]) [µg/mL] | MIC (Aspergillus niger [12]) [µg/mL]
1 | CCn1ccc2c(F)c(NC(=O)C(=O)c3c(-c4ccccc4)cc(C)n3C)ccc21 [Example 128, 2-(1,5-Dimethyl-3-phenyl-1H-pyrrol-2-yl)-N-(1-ethyl-4-fluoro-1H-indol-5-yl)-2-oxo-acetamide] | < 1 | < 1 | < 1 | < 1 | < 1 | < 1 | < 1 | < 1 | < 1 | < 1 | < 1 | < 1
2 | COCCn1c(C)cc(-c2ccccc2)c1C(=O)C(=O)Nc1ccc(N2CCOCC2)cc1F [Example 117, N-(2-Fluoro-4-morpholin-4-yl-phenyl)-2-[1-(2-methoxy-ethyl)-5-methyl-3-phenyl-1H-pyrrol-2-yl]-2-oxo-acetamide] | 1 to 10 (≈ 2.15 to 21.5 µM) | > 10 | 1 to 10 (≈ 2.15 to 21.5 µM) | 1 to 10 (≈ 2.15 to 21.5 µM) | > 10 | < 1 | 1 to 10 (≈ 2.15 to 21.5 µM) | < 1 | < 1 | < 1 | < 1 | < 1
3 | Cc1cc(-c2ccccc2)c(C(=O)C(=O)Nc2ccc(N3CCOCC3)cc2)n1C [Example 154, 2-(1,5-Dimethyl-3-phenyl-1H-pyrrol-2-yl)-N-(4-morpholin-4-yl-phenyl)-2-oxo-acetamide] | < 1 | < 1 | < 1 | < 1 | < 1 | < 1 | < 1 | < 1 | < 1 | < 1 | < 1 | < 1
4 | COCCn1ccc(-c2cccs2)c1C(=O)C(=O)Nc1ccc(N2CCN(c3cc(C)cc(C)n3)CC2)cc1 [Example 67, N-{4-[4-(4,6-Dimethyl-pyridin-2-yl)-piperazin-1-yl]-phenyl}-2-[1-(2-methoxy-ethyl)-3-thiophen-2-yl-1H-pyrrol-2-yl]-2-oxo-acetamide] | 1 to 10 (≈ 1.84 to 18.4 µM) | 1 to 10 (≈ 1.84 to 18.4 µM) | < 1 | 1 to 10 (≈ 1.84 to 18.4 µM) | < 1 | > 10 | < 1 | < 1 | < 1 | < 1 | < 1 | 1 to 10 (≈ 1.84 to 18.4 µM)
5 | COCCn1c(C)cc(-c2ccccc2)c1C(=O)C(=O)Nc1ccc(-c2ncco2)cc1 [Example 149, 2-[1-(2-Methoxy-ethyl)-5-methyl-3-phenyl-1H-pyrrol-2-yl]-N-(4-oxazol-2-yl-phenyl)-2-oxo-acetamide] | 1 to 10 (≈ 2.33 to 23.3 µM) | > 10 | 1 to 10 (≈ 2.33 to 23.3 µM) | 1 to 10 (≈ 2.33 to 23.3 µM) | 1 to 10 (≈ 2.33 to 23.3 µM) | < 1 | < 1 | < 1 | < 1 | < 1 | < 1 | < 1
6 | CCOCn1c(C)cc(-c2ccccc2)c1C(=O)C(=O)Nc1ccc(N2CCN(c3cc(C)cc(C)n3)CC2)cc1 [Example 132, N-{4-[4-(4,6-Dimethyl-pyridin-2-yl)-piperazin-1-yl]-phenyl}-2-(1-ethoxymethyl-5-methyl-3-phenyl-1H-pyrrol-2-yl)-2-oxo-acetamide] | < 1 | > 10 | < 1 | < 1 | < 1 | < 1 | < 1 | < 1 | < 1 | < 1 | < 1 | < 1
7 | COCCn1c(C)cc(C(C)C)c1C(=O)C(=O)Nc1ccc(N2CCN(c3cc(C)cc(C)n3)CC2)cc1 [Example 25, N-{4-[4-(4,6-Dimethyl-pyridin-2-yl)-piperazin-1-yl]-phenyl}-2-[3-isopropyl-1-(2-methoxy-ethyl)-5-methyl-1H-pyrrol-2-yl]-2-oxo-acetamide] | 1 to 10 (≈ 1.93 to 19.3 µM) | > 10 | > 10 | > 10 | > 10 | 1 to 10 (≈ 1.93 to 19.3 µM) | < 1 | 1 to 10 (≈ 1.93 to 19.3 µM) | 1 to 10 (≈ 1.93 to 19.3 µM) | < 1 | 1 to 10 (≈ 1.93 to 19.3 µM) | 1 to 10 (≈ 1.93 to 19.3 µM)
